pIC50: −log10 of the molar value. Read-outs that look alike come from different tables or passages of the source. Where only a bound is given, the exact number is not on record here.

The assay concerns the target recombinant eIF4E (Homo sapiens (Human), UniProt P06730). The assay is described as follows: Fluorescence polarization competition assay for eIF4E binding potency. In short, it runs like this:
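Protein and fluorescent cap-analog probe (EDA-m7GDP-ATTO-550) were mixed first for 5 min, after which serially diluted compound was added to final 75 nM eIF4E, 20 nM probe, 1% DMSO. Reactions equilibrated 30 min at room temperature before polarization was measured.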

Where [1] appears, read: fluorescence polarization competition, 75 nM recombinant eIF4E, 20 nM EDA-m7GDP-ATTO-550, IC50 class, read-out: elF4E FP.
Where [2] appears, read: inhibition of eIF4E/EDA-m7GDP-ATTO-550 binding by 50%, Table 4B calculated values, read-out: IC50.
[3] abbreviates: inhibition of eIF4E/EDA-m7GDP-ATTO-550 binding, calculated IC50 values, Table 4B, read-out: IC50.

Chain of recombinant eIF4E (P06730 whole entry): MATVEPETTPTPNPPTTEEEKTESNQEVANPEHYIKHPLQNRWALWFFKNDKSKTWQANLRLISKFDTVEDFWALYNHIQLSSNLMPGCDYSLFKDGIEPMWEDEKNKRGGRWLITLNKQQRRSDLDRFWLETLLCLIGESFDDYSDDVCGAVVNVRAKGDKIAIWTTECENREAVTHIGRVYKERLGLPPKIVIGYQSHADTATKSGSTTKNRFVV

With `Cc1cc(-c2cc(Cl)ccc2OCCn2c(C)nc3cnc(-c4ccccc4F)c(C#N)c3c2=O)c2scc(C(=O)O)c2n1` [compound 941], the pIC50 is, setting by setting: under setting [1], over 7.30; under setting [2], 7.70.
The matching figures for `Cc1nc2cc(C#N)c(OC(F)F)c(C#N)c2c(=O)n1CCOc1ccc(Cl)cc1-c1ccnc2c(C(=O)O)csc12` [compound 547]: 6.00 to 7.30 and 6.87.
Take `N#Cc1cccc2nc(C(F)F)n(CCOc3ccc(Cl)cc3-c3ccc(C(=O)O)c4ccsc34)c(=O)c12` [compound 191]: the pIC50 was 6.00 to 7.30 under setting [1] and 6.84 under setting [2].
Take `Cc1nc2cnc(N(C)C3CCN(CC(C)(C)C(F)(F)F)CC3)c(C#N)c2c(=O)n1CC#Cc1ccc(Cl)cc1-c1ccnc2c(C(=O)O)csc12` [compound 1586]: the pIC50 under setting [3] is 7.50.
For the compound `Cc1nc2cnc(N(C)C3CCN(CC(C)(C)F)CC3)c(C#N)c2c(=O)n1CCOc1ccc(Cl)cc1-c1ccnc2c(C(=O)O)csc12` [compound 1655], the pIC50 under setting [3] was 7.87.
Regarding `Cc1nc2cc(C(F)(F)F)c(C3CCN(C)CC3)cc2c(=O)n1CCOc1ccc(Cl)cc1-c1ccnc2c(C(=O)O)csc12` [compound 881], the pIC50 under setting [1] is over 7.30 and the pIC50 under setting [2] is 7.69.
Turning to `Cc1cc(-c2cc(Cl)ccc2OCCn2c(C)nc3c(C)nc(-c4ccc(F)cc4)c(C#N)c3c2=O)c2scc(C(=O)O)c2n1` [compound 474], the pIC50 under setting [1] was over 7.30 and the pIC50 under setting [2] was 7.87.
Consider `Cc1nc2cccc(C#N)c2c(=O)n1CCOc1ccc(Cl)cc1-c1ccnc2c(C(=O)O)csc12` [compound 254], for which the pIC50 was over 7.30 under setting [1] and 7.69 under setting [2].
Turning to `CCc1cc(-c2cc(Cl)ccc2OCCn2c(C)nc3cc(C(F)(F)F)c(-c4cc(F)cnc4C)c(C#N)c3c2=O)c2scc(C(=O)O)c2n1` [compound 1017], the pIC50 is over 7.30 under setting [1] and 8.08 under setting [2].
Regarding `Cc1cc(-c2cc(Cl)ccc2OCCn2c(C)nc3cc(C(F)(F)F)c4c(c3c2=O)C(=O)CC4)c2scc(C(=O)O)c2n1` [compound 1974], the pIC50 under setting [3] is 7.29.
With `N#Cc1cc2c(=O)n(CCOc3ccc(Cl)cc3-c3cc(C(=O)O)c4ccccc4n3)cnc2cn1` [compound 99], the pIC50 by setting is: under setting [1], under 6.00; under setting [2], 5.47.
The matching figures for `Cc1cc(C)c(-c2c(C(F)(F)F)cc3nc(C)n(CCOc4ccc(Cl)cc4-c4cc(C)nc5c(C(=O)O)csc45)c(=O)c3c2C#N)cn1` [compound 350]: over 7.30 and 7.85.
In the case of `C#Cc1c(C(=O)O)cccc1-c1cc(Cl)ccc1OCCn1cnc2cnc(C#N)cc2c1=O` [compound 127], the pIC50 reads like this: under setting [1], 6.00 to 7.30; under setting [2], 7.11.
Regarding `Cc1nc2cnc(N(C)C3CCN(C4CC(F)(F)C4)CC3)c(C#N)c2c(=O)n1CC#Cc1ccc(Cl)cc1-c1ccnc2c(C(=O)NS(=O)(=O)C(C)C)csc12` [compound 1808], the pIC50 under setting [3] was 8.27.
On to `O=C(O)c1cccc(-c2cc(Cl)ccc2OCCn2c(C(F)F)nc3cnc(Cl)cc3c2=O)c1` [compound 2008], for which the pIC50 under setting [3] is 7.02.
Take `Cc1nc2c(N3CCN(C)CC3(C)C)ncc(C#N)c2c(=O)n1CCOc1ccc(Cl)cc1-c1ccnc2c(C(=O)O)csc12` [compound 816]: the pIC50 under setting [1] was over 7.30 and the pIC50 under setting [2] was 8.16.
`Cc1cc(-c2cc(Cl)ccc2OCCn2c(C)nc3cc(C(F)(F)F)c(-c4nccnc4C(F)(F)F)nc3c2=O)c2scc(C(=O)O)c2n1` [compound 990]: the pIC50 reads like this: under setting [1], over 7.30; under setting [2], 7.49.
On to `Cc1cc(-c2cc(Cl)ccc2OCCn2c(C)nc3cnc(N(C)C4CCN(CC(C)(F)F)CC4)c(C#N)c3c2=O)c2scc(C(=O)O)c2n1` [compound 1563], for which, under setting [3], the pIC50 is 7.89.
For `COc1c(Cl)cc(-c2cc(Cl)ccc2OCCn2cnc3cnc(C#N)cc3c2=O)cc1C(=O)O` [compound 108], the pIC50 was under 6.00 under setting [1] and 4.95 under setting [2].
With `Cc1cc(-c2cc(Cl)ccc2OCCn2c(C)nc3c(C(C)C)ncc(C#N)c3c2=O)c2scc(C(=O)O)c2n1` [compound 491], the pIC50 under setting [1] is over 7.30 and the pIC50 under setting [2] is 7.64.
With `Cc1nc2cc(C(F)(F)F)c(N3CCN(C4CC4)CC3)c(C#N)c2c(=O)n1CCOc1ccc(Cl)cc1-c1ccnc2c(P(=O)(O)O)csc12` [compound 1615], under setting [3], the pIC50 is 7.83.
In the case of `Cc1cc(-c2cc(Cl)ccc2OCCn2c(C)nc3cc(C(F)(F)F)c(C#N)nc3c2=O)c2scc(C(=O)O)c2n1` [compound 785], the pIC50 runs as follows: under setting [1], over 7.30; under setting [2], 7.74.
Regarding `Cc1nc2c(ccc3cnncc32)c(=O)n1CCOc1ccc(Cl)cc1-c1ccnc2c(C(=O)O)csc12` [compound 659], the pIC50 is, setting by setting: under setting [1], over 7.30; under setting [2], 7.58.
On to `Cc1nc2cnc(N(C)C3CCN(CC(F)(F)C(F)F)CC3)c(C#N)c2c(=O)n1CC#Cc1ccc(Cl)cc1-c1ccnc2c(C(=O)O)csc12` [compound 1103], for which the pIC50 runs as follows: under setting [1], over 7.30; under setting [2], 7.83.
On the same counts, the results for `Cc1cc(-c2cc(Cl)ccc2OCCn2c(C)nc3cc(C(F)(F)F)c(-c4ccccn4)c(C#N)c3c2=O)c2scc(C(=O)O)c2n1` [compound 631] are over 7.30 and 8.47.
On to `Cc1nc2cnc(N3CCN(C)C4(COC4)C3)c(C#N)c2c(=O)n1CCOc1ccc(Cl)cc1-c1ccnc2c(C(=O)O)csc12` [compound 1351], for which, under setting [3], the pIC50 is 7.80.
Take `C#Cc1c(-c2cc(Cl)ccc2OCCn2c(C(F)F)nc3cccc(C#N)c3c2=O)csc1C(=O)O` [compound 2034]: the pIC50 under setting [3] is 8.21.
`Cc1cc(-c2cc(Cl)ccc2OCCn2c(C)nc3c(C)nc(N4CCN(C)CC4)c(C#N)c3c2=O)c2scc(C(=O)O)c2n1` [compound 875]: the pIC50 under setting [1] was over 7.30.
Regarding `CN1c2cc(C(F)(F)F)cc(C#N)c2C(=O)N(CCOc2ccc(Cl)cc2-c2ccnc3c(C(=O)O)csc23)C1(C)C` [compound 355], the pIC50 runs as follows: under setting [1], 6.00 to 7.30; under setting [2], 6.84.
`Cc1nc2cnc(N(C)C3C[C@@H]4C[C@H]3CN4CC(C)(F)F)c(C#N)c2c(=O)n1CC#Cc1ccc(Cl)cc1-c1ccnc2c(C(=O)O)csc12` (stereo partly shown) [compound 1545]: under setting [3], the pIC50 was 7.56.
Regarding `Cc1nc2cnc(N(C)C3CCN(CC(F)(F)F)CC3)c(C#N)c2c(=O)n1CC#Cc1ccc(Cl)cc1-c1ccnc2c(C(=O)NS(=O)(=O)CC(F)F)csc12` [compound 1539], the pIC50 under setting [3] is 7.90.
Regarding `Cc1cc(-c2cc(Cl)ccc2OCCn2c(C)nc3cc(F)c(-c4cnc(C)s4)c(C#N)c3c2=O)c2scc(C(=O)O)c2n1` [compound 921], the pIC50 is, setting by setting: under setting [1], 6.00 to 7.30; under setting [2], 7.16.
In the case of `Cc1nc2cnc(N3CCN(C4CC4(C)C)CC3)c(C#N)c2c(=O)n1CCOc1ccc(Cl)cc1-c1ccnc2c(C(=O)O)csc12` (stereo not shown) [compound 1638], the pIC50 under setting [3] was 7.41.
With `Cc1cc(-c2cc(Cl)ccc2OCCn2c(C)cc3cnc(N4CCC4)c(C#N)c3c2=O)c2scc(C(=O)O)c2n1` [compound 1003], the pIC50 reads like this: under setting [1], over 7.30; under setting [2], 7.87.
Turning to `Cc1cc(-c2cc(Cl)ccc2OCCn2c(C)nc3cnc(N4CC(OC(C)(C)C)C4)c(C#N)c3c2=O)c2scc(C(=O)O)c2n1` [compound 1045], the pIC50 is over 7.30 under setting [1] and 7.42 under setting [2].
As for `Cc1sc2c(-c3cc(Cl)ccc3OCCn3c(C)nc4c(C)c(C(F)(F)F)c(N5CCN(C)CC5)c(C#N)c4c3=O)ccnc2c1C(=O)O` [compound 1933], the pIC50 under setting [3] was 7.46.

Values taken from patent US11286268B1, “EIF4E-inhibiting compounds and methods” (EFFECTOR THERAPEUTICS, INC., priority 2019, dated 2022).
